Assay results from patent US6184333A, “Low-toxicity, high-temperature polyimides” (Maverick Corporation, priority 1999, dated 2001).

What was measured:
[1] = cited from earlier work; for Carcinogenicity: animals, where stated; for Toxicity: in vivo
[2] = with and without metabolic activation; cited from earlier work
rabbit skin = conditions: cited from earlier work
rat [3] = assay: Acute oral LD50; type: in vivo; conditions: vs. MDA
From the text: Except for BAX, the advantages of these diamines include low cost (<$50/pound) as well as low toxicity. […] (ADD IN FNOTE 19) Table I compares the toxicological data of MDA vs. That of Bisaninine-P and Bisaniline-M. In addition, the Ames Mutagenicity Assays for Bisaniline-P and Bisaniline-M were negative with and without metabolic activation. (ID)

rat [4] = conditions: cited from earlier work
Solubility in methanol = type: physicochemical
From the text: A matrix of polyirnide copolymers was synthesized by using Bisaniline-P, Bisaniline-M, and paraphenylenediamine (PPDA). Partial molar substitutions of PPDA (up to 50 mole percent) were used in order to increase glass transition temperatuer and/or thermal oxidative stability. Pre-polymer molecular weight was also adjusted to favorably impact processing parameters as well as the final Tg. Each copolymer was formulated at a molar ratio of 2 NE: 2 BTDE: 3 Diamine. All of the resin systems were synthesized using standard techniques known in the industry. In some of the BIS-P formulations, n-methylpyrrilidinone (NMP) was used as a solvent in addition to methanol. This was done in order to maintain the solubility of the fairly large molecular-weight BIS-P diamine. […] A detailed description of the low-toxicity polyimnide systems that were developed is shown below in Table IV.

rat [5] = conditions: cited from earlier work; remark: listed apart in the source

SMILES	Carcinogenicity [1]	Toxicity [1]	Ames Mutagenicity Assay [2]	Skin irritation (printed in the Acute Dermal LD50 line) (rabbit skin)	Acute oral LD50 compared with that of MDA (rat [3])	Acute Oral LD50 (rat [4])	Solubility in methanol (Solubility in methanol)	Acute Dermal LD50 (rat [5])	Human carcinogenicity ([1]; human)
CC(C)(c1ccc(Oc2ccc(N)cc2)cc1)c1ccc(Oc2ccc(N)cc2)cc1 [BAPP, 2,2-bis(4-[4-aminophenoxyl]phenyl) propane]	non-carcinogenic	non-toxic							
CC(C)(c1ccc(N)cc1)c1cccc(C(C)(C)c2ccc(N)cc2)c1 [BIS-M, 4,4'-(1,3-phenylene-bis(1-methylethylidene))bisaniline]			negative	Non-irritating	more than ten times higher	6,240 mg/kg	readily soluble		
CC(C)(c1ccc(N)cc1)c1ccc(C(C)(C)c2ccc(N)cc2)cc1 [BIS-P, 4,4'-(1,4-phenylene-bis(1-methylethylidene))bisaniline]			negative		more than ten times higher	> 5,000 mg/kg		> 2,000 mg/kg	
Nc1ccc(Cc2ccc(N)cc2)cc1 [MDA, 4,4'-methylenedianiline, reference compound]	known animal carcinogen	known kidney and liver toxin				347 mg/kg		200 mg/kg	suspected human carcinogen
Nc1ccc(N)cc1 [PPDA, para-phenylenediamine]	no carcinogenic activity in animals								
